12 molecules from patent publication US11396502B2, “Substituted heterocyclic derivatives as PI3K inhibitors” (Incyte Corporation, priority 2018, dated 2022) can be followed below.

Structures can show the parent of a compound that is named as a salt. Where two headings read alike, the source gives them in different places.

The target of one test is PI3Kγ (p110γ) (Homo sapiens (Human), UniProt P48736). The test is described as follows: PI3K-γ scintillation proximity assay. It counts as biochemical. Particulars: recombinant human PI3Kγ 13 nM, 20 μM PIP2, 2 μM ATP, 120 min, room temperature. The source says: Example B. PI3K-γ Scintillation Proximity Assay Materials: [γ-^33P]ATP (10 mCi/mL) and Wheat Germ Agglutinin (WGA) YSi SPA Scintillation Beads was purchased from Perkin Elmer (Waltham, Mass.). Lipid kinase substrate, D-myo-Phosphatidylinositol 4,5-bisphosphate (PtdIns(4,5)P2)D (+)-sn-1,2-di-O-octanoylglyceryl, 3-O-phospho linked (PIP2), CAS 204858-53-7, was purchased from Echelon Biosciences (Salt Lake City, Utah). PI3Kγ (p110γ) Recombinant Human Protein was purchased from Life technology (Grand Island, N.Y.). ATP, MgCl2, DTT, EDTA, MOPS and CHAPS were purchased from Sigma Aldrich (St. Louis, Mo.). The kinase reaction was conducted in polystyrene 384-well Greiner Bio-one white plate from Thermo Fisher Scientific in a final volume of 25 μL. Inhibitors were first diluted serially in DMSO and added to the plate wells before the addition of other reaction components. The final concentration of DMSO in the assay was 2%. The PI3Kγ assay was carried out at room temperature in 20 mM MOPS, pH 6.7, 10 mM MgCl2, 5 mM DTT and CHAPS 0.03%. Reactions were initiated by the addition of ATP, the final reaction mixture consisted of 20 μM PIP2, 2 μM ATP, 0.5 μCi [γ-^33P] ATP, 13 nM PI3Kγ. Reactions were incubated for 120 min and terminated by the addition of 40 μL SPA beads suspended in quench buffer: 163 mM potassium phosphate pH 7.8, 20% glycerol, 25 mM EDTA. The final concentration of SPA beads is 1.0 mg/mL. After the plate sealing, plates were shaken overnight at room temperature and centrifuged at 1500 rpm for 10 min, the radioactivity of the product was determined by scintillation counting on Topcount (Perkin-Elmer). IC50 determination was performed by fitting the curve of percent of the solvent control activity versus the log of the inhibitor concentration using the GraphPad Prism 6.0 software.
PI3Kγ (p110γ), sequence (P48736 whole entry): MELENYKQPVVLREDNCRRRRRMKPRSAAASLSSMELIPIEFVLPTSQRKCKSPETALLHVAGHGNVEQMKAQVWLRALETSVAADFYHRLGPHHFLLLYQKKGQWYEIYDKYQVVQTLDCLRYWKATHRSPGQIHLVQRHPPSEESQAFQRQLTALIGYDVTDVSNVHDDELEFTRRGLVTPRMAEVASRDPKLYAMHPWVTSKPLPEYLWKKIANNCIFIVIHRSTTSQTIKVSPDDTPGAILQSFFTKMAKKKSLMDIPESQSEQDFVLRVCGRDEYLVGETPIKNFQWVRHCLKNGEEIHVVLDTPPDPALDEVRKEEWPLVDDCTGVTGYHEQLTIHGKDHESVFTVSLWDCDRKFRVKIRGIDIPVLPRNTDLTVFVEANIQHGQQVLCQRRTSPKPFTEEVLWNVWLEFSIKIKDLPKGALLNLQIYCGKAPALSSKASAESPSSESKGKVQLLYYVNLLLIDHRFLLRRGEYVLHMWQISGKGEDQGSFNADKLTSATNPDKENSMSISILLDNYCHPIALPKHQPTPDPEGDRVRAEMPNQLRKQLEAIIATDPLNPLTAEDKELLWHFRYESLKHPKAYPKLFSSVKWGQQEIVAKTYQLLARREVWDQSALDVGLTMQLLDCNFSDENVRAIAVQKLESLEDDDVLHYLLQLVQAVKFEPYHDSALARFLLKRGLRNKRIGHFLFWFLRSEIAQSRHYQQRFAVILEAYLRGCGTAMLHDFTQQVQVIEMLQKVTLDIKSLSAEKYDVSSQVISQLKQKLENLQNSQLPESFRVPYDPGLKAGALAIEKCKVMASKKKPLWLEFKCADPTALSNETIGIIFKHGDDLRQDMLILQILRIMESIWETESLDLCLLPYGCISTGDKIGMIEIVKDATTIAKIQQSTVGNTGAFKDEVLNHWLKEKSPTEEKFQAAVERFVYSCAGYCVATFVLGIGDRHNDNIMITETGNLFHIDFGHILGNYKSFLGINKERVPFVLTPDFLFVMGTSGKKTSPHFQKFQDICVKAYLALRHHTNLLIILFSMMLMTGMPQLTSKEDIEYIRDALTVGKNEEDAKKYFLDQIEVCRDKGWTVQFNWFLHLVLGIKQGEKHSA

The next test deals with PI3Kδ (p110δ/p85α) (Homo sapiens (Human), UniProt O00329). Kind of test: PI3Kδ scintillation proximity assay. Particulars: recombinant human PI3Kδ 3.4 nM, 20 μM PIP2, 2 μM ATP, 120 min, room temperature. The test is classed as biochemical. An excerpt: Example C. PI3Kδ Scintillation Proximity Assay Materials: [γ-^33P]ATP (10 mCi/mL) and Wheat Germ Agglutinin (WGA) YSi SPA Scintillation Beads was purchased from Perkin Elmer (Waltham, Mass.). Lipid kinase substrate, D-myo-Phosphatidylinositol 4,5-bisphosphate (PtdIns(4,5)P2)D (+)-sn-1,2-di-O-octanoylglyceryl, 3-O-phospho linked (PIP2), CAS 204858-53-7, was purchased from Echelon Biosciences (Salt Lake City, Utah). PI3Kδ (p110δ/p85α) Recombinant Human Protein was purchased from Eurofins (St Charles, Mo.). ATP, MgCl2, DTT, EDTA, MOPS and CHAPS were purchased from Sigma Aldrich (St. Louis, Mo.). The kinase reaction was conducted in polystyrene 384-well Greiner Bio-one white plate from Thermo Fisher Scientific in a final volume of 25 μL. Inhibitors were first diluted serially in DMSO and added to the plate wells before the addition of other reaction components. The final concentration of DMSO in the assay was 2%. The PI3Kδ assay was carried out at room temperature in 20 mM MOPS, pH 6.7, 10 mM MgCl2, 5 mM DTT and CHAPS 0.03%. Reactions were initiated by the addition of ATP, the final reaction mixture consisted of 20 μM PIP2, 2 μM ATP, 0.5 μCi [γ-^33P] ATP, 3.4 nM PI3Kδ. Reactions were incubated for 120 min and terminated by the addition of 40 μL SPA beads suspended in quench buffer: 163 mM potassium phosphate pH 7.8, 20% glycerol, 25 mM EDTA. The final concentration of SPA beads is 1.0 mg/mL. After the plate sealing, plates were shaken overnight at room temperature and centrifuged at 1500 rpm for 10 min, the radioactivity of the product was determined by scintillation counting on Topcount (PerkinElmer). IC50 determination was performed by fitting the curve of percent of the solvent control activity versus the log of the inhibitor concentration using the GraphPad Prism 6.0 software.
PI3Kδ (p110δ/p85α), sequence (O00329 whole entry): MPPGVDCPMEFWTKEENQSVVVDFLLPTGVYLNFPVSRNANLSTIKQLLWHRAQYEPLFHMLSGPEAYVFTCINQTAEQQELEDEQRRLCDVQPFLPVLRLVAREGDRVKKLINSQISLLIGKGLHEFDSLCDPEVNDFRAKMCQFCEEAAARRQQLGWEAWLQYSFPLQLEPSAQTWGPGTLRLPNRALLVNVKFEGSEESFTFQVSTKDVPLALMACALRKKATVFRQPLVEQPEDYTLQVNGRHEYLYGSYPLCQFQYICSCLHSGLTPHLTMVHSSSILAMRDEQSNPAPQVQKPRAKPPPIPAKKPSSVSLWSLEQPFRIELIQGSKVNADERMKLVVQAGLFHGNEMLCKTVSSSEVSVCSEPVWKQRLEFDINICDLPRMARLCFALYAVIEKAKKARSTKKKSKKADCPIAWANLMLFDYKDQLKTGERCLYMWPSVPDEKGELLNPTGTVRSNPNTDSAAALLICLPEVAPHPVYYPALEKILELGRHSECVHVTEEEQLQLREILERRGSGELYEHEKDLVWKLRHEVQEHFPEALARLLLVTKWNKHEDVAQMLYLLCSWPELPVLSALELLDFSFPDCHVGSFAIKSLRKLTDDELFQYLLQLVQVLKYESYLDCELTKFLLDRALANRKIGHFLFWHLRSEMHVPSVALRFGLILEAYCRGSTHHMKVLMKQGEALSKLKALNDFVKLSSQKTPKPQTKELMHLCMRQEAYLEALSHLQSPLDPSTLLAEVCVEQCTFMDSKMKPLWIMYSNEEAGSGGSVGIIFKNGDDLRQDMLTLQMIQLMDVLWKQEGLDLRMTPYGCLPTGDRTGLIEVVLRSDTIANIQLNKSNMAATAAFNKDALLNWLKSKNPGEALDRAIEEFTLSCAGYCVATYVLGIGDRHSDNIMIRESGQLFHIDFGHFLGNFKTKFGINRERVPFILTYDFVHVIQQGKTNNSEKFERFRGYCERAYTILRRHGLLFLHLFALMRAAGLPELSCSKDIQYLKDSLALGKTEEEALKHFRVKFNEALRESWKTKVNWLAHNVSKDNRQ
PI3Kδ (p110δ/p85α), sequence (P27986 whole entry partner): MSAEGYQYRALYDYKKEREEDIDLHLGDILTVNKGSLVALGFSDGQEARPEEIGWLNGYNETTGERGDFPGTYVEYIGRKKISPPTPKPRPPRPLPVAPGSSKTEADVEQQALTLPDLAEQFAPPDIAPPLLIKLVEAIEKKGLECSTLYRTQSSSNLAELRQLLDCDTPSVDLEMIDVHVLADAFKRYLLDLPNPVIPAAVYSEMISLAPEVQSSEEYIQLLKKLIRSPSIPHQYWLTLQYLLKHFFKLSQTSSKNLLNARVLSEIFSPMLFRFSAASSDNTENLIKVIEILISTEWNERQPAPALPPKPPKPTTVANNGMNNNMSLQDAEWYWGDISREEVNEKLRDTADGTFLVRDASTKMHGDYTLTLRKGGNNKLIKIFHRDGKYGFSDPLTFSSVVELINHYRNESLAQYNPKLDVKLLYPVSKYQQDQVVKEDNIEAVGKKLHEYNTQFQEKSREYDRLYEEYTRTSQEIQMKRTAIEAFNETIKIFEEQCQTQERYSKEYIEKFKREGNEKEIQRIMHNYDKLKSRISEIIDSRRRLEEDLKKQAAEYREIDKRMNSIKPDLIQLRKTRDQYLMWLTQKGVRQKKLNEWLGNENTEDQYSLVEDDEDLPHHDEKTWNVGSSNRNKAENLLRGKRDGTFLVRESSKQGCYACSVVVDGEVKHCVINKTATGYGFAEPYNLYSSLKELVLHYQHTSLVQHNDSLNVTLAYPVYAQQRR

Test [1] relates to Phosphorylated Ribosomal Protein S6 (RPS6) in THP-1 cells. The test is described as follows: THP-1 RPS6 ELISA assay. It counts as cell-based, Human. Particulars: Homo sapiens. Here is the method: Example A. THP-1 RPS6 ELISA Assay
To measure the Phosphorylated Ribosomal Protein S6 (RPS6) in cell lysates, THP-1 cells (Human Acute Monocytic Leukemia) are purchased from ATCC (Manassas, Va.) and maintained in RPMI with 10% FBS (Gibco/Life Technologies, Carlsbad, Calif.). For the assay, THP-1 cells are serum starved overnight in RPMI, then plated in RPMI (2×10^5 cells/well in 90 μL) into 96-well flat-bottom tissue culture treated plates (Corning, Corning, N.Y.), in the presence or absence of a concentration range of test compounds. Covered plates are incubated for 2 hours at 37° C., 5% CO2 then treated with or without 10 nM MCP-1 (MYBioSource, San Diego, Calif.) for 15 minutes at 37° C., 5% CO2. Plates are centrifuged at 1600 RPM and supernatants are removed. Cells are lysed in Lysis Buffer (Cell Signaling, Danvers, Mass.) with Protease Inhibitor (Calbiochem/EMD, Germany), PMSF (Sigma, St Louis Mo.), HALTS (Thermo Fisher, Rockford, Ill.) for 30 min on wet ice. Cell lysates are frozen at −80° C. before testing. The lysates are tested in the Human/Mouse/Rat Phospho-RPS6 ELISA (R&D Systems, Inc. Minn, Minn.). The plate is measured using a microplate reader (SpectraMax M5—Molecular Devices, LLC Sunnyvale, Calif.) set to 450 nm with a wavelength correction of 540. IC50 determination is performed by fitting the curve of inhibitor percent inhibition versus the log of the inhibitor concentration using the GraphPad Prism 5.0 software.

Where [2] appears, read: THP-1, serum starved THP-1 cells, 2 hours compound, 10 nM MCP-1 for 15 minutes, Phospho-RPS6 ELISA, read-out: PI3Kγ_THP1_RPS6_ELISA IC50.

Consider `Cc1[nH]c(-c2cc(-c3cc4c(c(S(C)(=O)=O)c3)C(=O)N([C@@H](C)C3CC3)C4)ccn2)nc1C(=O)N1CCC1` [Example 7j, (S)-5-(2-(5-(Azetidine-1-carbonyl)-4-methyl-1H-imidazol-2-yl)pyridin-4-yl)-2-(1-cyclopropylethyl)-7-(methylsulfonyl)isoindolin-1-one, trifluoroacetate salt], for which the IC50 on PI3Kγ (p110γ) was less than 100 nM; at PI3Kδ (p110δ/p85α) it was 100 to 500 nM; in test [1] (THP-1, read-out: PI3Kγ_THP1_RPS6_ELISA IC50 (nM)), 100 to 500 nM.

With `Cc1[nH]c(-c2cc(-c3cc4c(c(S(C)(=O)=O)c3)C(=O)N([C@@H](C)C3CC3)C4)ccn2)nc1C(=O)NC1CCC1` [Example 7k, (S)-N-Cyclobutyl-2-(4-(2-(1-cyclopropylethyl)-7-(methylsulfonyl)-1-oxoisoindolin-5-yl)pyridin-2-yl)-4-methyl-1H-imidazole-5-carboxamide, trifluoroacetate salt], the IC50 on PI3Kγ (p110γ) is less than 100 nM; on PI3Kδ (p110δ/p85α) it was 100 to 500 nM; in test [1] (setting [2]) it was 100 to 500 nM.

As to `Cc1[nH]c(-c2cc(-c3cc4c(c(S(C)(=O)=O)c3)C(=O)N([C@@H](C)C3CC3)C4)ccn2)nc1C(=O)NC1CN(C)C1` [Example 7m, (S)-2-(4-(2-(1-Cyclopropylethyl)-7-(methylsulfonyl)-1-oxoisoindolin-5-yl)pyridin-2-yl)-4-methyl-N-(1-methylazetidin-3-yl)-1H-imidazole-5-carboxamide, trifluoroacetate salt], the IC50 was less than 100 nM at PI3Kγ (p110γ), 500 to 2000 nM on PI3Kδ (p110δ/p85α) and 500 to 1000 nM in test [1] (setting [2]).

For the molecule `Cc1[nH]c(-c2cc(-c3cc4c(c(S(C)(=O)=O)c3)C(=O)N([C@@H](C)C3CC3)C4)ccn2)nc1C(=O)N(C)C1CCOCC1` [Example 7o, (S)-2-(4-(2-(1-Cyclopropylethyl)-7-(methylsulfonyl)-1-oxoisoindolin-5-yl)pyridin-2-yl)-N,4-dimethyl-N-(tetrahydro-2H-pyran-4-yl)-1H-imidazole-5-carboxamide, trifluoroacetate salt], the IC50 on PI3Kγ (p110γ) was less than 100 nM; on PI3Kδ (p110δ/p85α), 100 to 500 nM; in test [1] (setting [2]) it was 100 to 500 nM.

Consider `Cc1[nH]c(-c2cc(-c3cc4c(c(S(C)(=O)=O)c3)C(=O)N([C@@H](C)C3CC3)C4)ccn2)nc1C(=O)N1CC2(COC2)C1` [Example 7p, (S)-2-(1-Cyclopropylethyl)-5-(2-(4-methyl-5-(2-oxa-6-azaspiro[3.3]heptane-6-carbonyl)-1H-imidazol-2-yl)pyridin-4-yl)-7-(methylsulfonyl)isoindolin-1-one, trifluoroacetate salt], for which the figures for the IC50 (at PI3Kγ (p110γ); at PI3Kδ (p110δ/p85α); in test [1] (setting [2])) were less than 100 nM, 500 to 2000 nM and 100 to 500 nM, respectively.

In the case of `Cc1[nH]c(-c2cc(-c3cc4c(c(S(C)(=O)=O)c3)C(=O)N([C@@H](C)C3CC3)C4)ccn2)nc1C(N)=O` [Example 7q, (S)-2-(4-(2-(1-Cyclopropylethyl)-7-(methylsulfonyl)-1-oxoisoindolin-5-yl)pyridin-2-yl)-4-methyl-1H-imidazole-5-carboxamide, trifluoroacetate salt], the IC50 on PI3Kγ (p110γ) is less than 100 nM; on PI3Kδ (p110δ/p85α) it was 500 to 2000 nM; in test [1] (setting [2]), more than 1000 nM.

For the molecule `CCNC(=O)c1nc(-c2cc(-c3cc4c(c(S(C)(=O)=O)c3)C(=O)N([C@@H](C)C3CC3)C4)ccn2)[nH]c1C` [Example 7r, (S)-2-(4-(2-(1-Cyclopropylethyl)-7-(methylsulfonyl)-1-oxoisoindolin-5-yl)pyridin-2-yl)-N-ethyl-4-methyl-1H-imidazole-5-carboxamide, trifluoroacetate salt], the IC50 on PI3Kγ (p110γ) was less than 100 nM; at PI3Kδ (p110δ/p85α), 500 to 2000 nM; in test [1] (setting [2]) it was 100 to 500 nM.

With `CCN(C)C(=O)c1nc(-c2cc(-c3cc4c(c(S(C)(=O)=O)c3)C(=O)N([C@@H](C)C3CC3)C4)ccn2)[nH]c1C` [Example 7s, (S)-2-(4-(2-(1-Cyclopropylethyl)-7-(methylsulfonyl)-1-oxoisoindolin-5-yl)pyridin-2-yl)-N-ethyl-N,4-dimethyl-1H-imidazole-5-carboxamide, trifluoroacetate salt], the 50% inhibitory concentration (IC50) at PI3Kγ (p110γ) is less than 100 nM; at PI3Kδ (p110δ/p85α), 500 to 2000 nM; in test [1] (setting [2]), 500 to 1000 nM.

For `Cc1[nH]c(-c2cc(-c3cc4c(c(S(C)(=O)=O)c3)C(=O)N([C@@H](C)C3CC3)C4)ccn2)nc1C(=O)N(C)C(C)C` [Example 7t, (S)-2-(4-(2-(1-Cyclopropylethyl)-7-(methylsulfonyl)-1-oxoisoindolin-5-yl)pyridin-2-yl)-N-isopropyl-N,4-dimethyl-1H-imidazole-5-carboxamide, trifluoroacetate salt], the IC50 is less than 100 nM on PI3Kγ (p110γ), 500 to 2000 nM on PI3Kδ (p110δ/p85α) and 100 to 500 nM in test [1] (setting [2]).

Consider `Cc1[nH]c(-c2cc(-c3cc4c(c(S(C)(=O)=O)c3)C(=O)N([C@@H](C)C3CC3)C4)ccn2)nc1C(=O)N(C)C1CCC1` [Example 7u, (S)-N-Cyclobutyl-2-(4-(2-(1-cyclopropylethyl)-7-(methylsulfonyl)-1-oxoisoindolin-5-yl)pyridin-2-yl)-N,4-dimethyl-1H-imidazole-5-carboxamide, trifluoroacetate salt], for which the results for the 50% inhibitory concentration (IC50) (on PI3Kγ (p110γ); on PI3Kδ (p110δ/p85α); in test [1] (setting [2])) were less than 100 nM, 500 to 2000 nM and 100 to 500 nM, respectively.

On to `C[C@@H](C1CC1)N1Cc2cc(-c3cnnc(-c4ccn[nH]4)c3)cc(S(C)(=O)=O)c2C1=O` [Example 9, (S)-5-(6-(1H-Pyrazol-5-yl)pyridazin-4-yl)-2-(1-cyclopropylethyl)-7-(methylsulfonyl)isoindolin-1-one Trifluoroacetate Salt], for which the IC50 at PI3Kγ (p110γ) is 100 to 500 nM; on PI3Kδ (p110δ/p85α) it was more than 2000 nM; in test [1] (setting [2]) it was more than 1000 nM.

For the molecule `Cc1cc(-c2cc(-c3cc4c(c(S(C)(=O)=O)c3)C(=O)N([C@@H](C)C3CC3)C4)cnn2)[nH]n1` [Example 10, (S)-2-(1-Cyclopropylethyl)-5-(6-(3-methyl-1H-pyrazol-5-yl)pyridazin-4-yl)-7-(methylsulfonyl)isoindolin-1-one, trifluoroacetate salt], the figures for the IC50 (on PI3Kγ (p110γ); at PI3Kδ (p110δ/p85α); in test [1] (setting [2])) were 100 to 500 nM, more than 2000 nM and more than 1000 nM, respectively.
